According to patent publication US12139520B2 (priority 2020, dated 2024):
Bridge positions count the residues as written; N and C are the ends. Square brackets hold non-standard residues; d marks the D form. Peptide text beside a SMILES is read from it. Hyp = O=C(O)[C@@H]1C[C@@H](O)CN1; Cit = NC(=O)NCCC[C@H](N)C(=O)O

Assays:
[1] = Physical stability of peptide analogues (Thioflavin T fibrillation); format: physicochemical; conditions: maximum ThT signal normalized between hAMY maximum and buffer background; 40° C., shaking, four days; pH 7 per table title
Description: General Protocols for Determination of Physical Stability of Peptide Analogues
Peptides were dissolved in buffers (50 mM sodium acetate at pH 4 or 50 mM sodium phosphate at pH 7) and incubated for one hour. The samples were then divided into two replicates of 80 μl in a black 384 well plate (μ-clear, Greiner Bio-One) and mixed with Thioflavin T (ThT) to a final concentration of 4 μM. The plate was sealed and placed in a plate reader (CLARIOstar, BMG) where the temperature was set at 40° C. during the course of the experiment. The samples were further stressed by shaking the plate at 700 rpm (linear) for five minutes before every measurement. The fluorescence was measured every 10 min for four days by exciting the ThT at 450 nm and measuring the emission at 480 nm. For each peptide, the ThT signal over time was smoothened using Local Polynomial Regression fitting (LOESS) as implemented in the statistical programming environment R. For the smoothened data, the maximum ThT signal was normalized in percent between the maximum ThT signal for hAMY and the buffer background.

[2] = target: T1, hAMY3 receptor (Homo sapiens, UniProt O60896+P30988); experiment: cAMP assay for in vitro receptor activation, hAMY3-R; format: cell-based; conditions: cAMP assay, hAMY3 receptor; read-out: hAMY3R EC50
T1 sequence (P30988 25-474): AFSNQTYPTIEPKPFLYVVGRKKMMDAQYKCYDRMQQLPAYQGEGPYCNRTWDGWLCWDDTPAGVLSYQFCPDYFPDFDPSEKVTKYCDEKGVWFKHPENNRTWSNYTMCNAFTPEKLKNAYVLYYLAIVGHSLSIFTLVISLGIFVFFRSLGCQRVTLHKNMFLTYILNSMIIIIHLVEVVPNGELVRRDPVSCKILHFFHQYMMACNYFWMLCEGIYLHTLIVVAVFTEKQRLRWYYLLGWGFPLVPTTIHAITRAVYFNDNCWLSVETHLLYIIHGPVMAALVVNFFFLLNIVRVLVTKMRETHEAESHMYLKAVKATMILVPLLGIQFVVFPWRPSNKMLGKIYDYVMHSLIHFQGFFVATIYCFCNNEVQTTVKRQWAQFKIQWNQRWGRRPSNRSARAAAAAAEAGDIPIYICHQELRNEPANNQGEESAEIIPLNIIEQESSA
T1 sequence (O60896 24-148 partner): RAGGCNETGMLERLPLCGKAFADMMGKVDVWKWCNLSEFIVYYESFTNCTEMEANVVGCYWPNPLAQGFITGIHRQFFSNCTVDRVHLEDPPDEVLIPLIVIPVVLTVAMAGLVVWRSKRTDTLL
Summary of the method: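 Read-out is TR-FRET cAMP signal, recorded one hour after reagent addition, following 30 min room-temperature stimulation of stable hAMY3 cells with graded compound doses in casein/IBMX (0.5 mM) buffer.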

## CC[C@H](C)[C@H](NC(=O)[C@H](CCC(N)=O)NC(=O)[C@H](Cc1c[nH]cn1)NC(=O)[C@H](C)NC(=O)[C@H](CC(C)C)NC(=O)[C@H](CCCNC(=N)N)NC(=O)[C@H](CCC(N)=O)NC(=O)[C@@H](NC(=O)[C@@H](NC(=O)[C@@H]1CSSC[C@H](NC(=O)CN)C(=O)N[C@@H](CCCNC(=N)N)C(=O)N[C@@H](Cc2ccccc2)C(=O)NCC(=O)N[C@@H]([C@@H](C)O)C(=O)N1)[C@@H](C)O)C(C)C)C(=O)N[C@@H](Cc1ccc(O)cc1)C(=O)N[C@@H](CCC(N)=O)C(=O)N[C@@H](Cc1ccccc1)C(=O)N[C@H](C(=O)N[C@@H](CC(=O)O)C(=O)N[C@@H](CCCCN)C(=O)N[C@@H](CC(=O)O)C(=O)N[C@@H](CCCCN)C(=O)N[C@@H](CC(=O)O)C(=O)N[C@@H](CC(N)=O)C(=O)N[C@H](C(=O)N[C@@H](C)C(=O)N1CCC[C@H]1C(=O)N[C@@H](CCCNC(=N)N)C(=O)N[C@H](C(=O)N[C@@H](CCCCN)C(=O)N[C@H](C(=O)NCC(=O)N1CCC[C@H]1C(=O)N[C@@H](CCC(N)=O)C(=O)NCC(=O)N1C[C@H](O)C[C@H]1C(N)=O)C(C)C)[C@@H](C)O)C(C)C)[C@@H](C)O [compound 45] (H-GCRFGTCTVQRLAHQIYQFTDKDKDNVAPRTKVGPQG[Hyp]-NH2; disulfide 2-7; N-terminus assumed)
[1]
  Max ThT signal (%): 3.000%
[2]
  EC50: 0.011 nM

## CC[C@H](C)[C@H](NC(=O)[C@H](CCC(N)=O)NC(=O)[C@H](Cc1c[nH]cn1)NC(=O)[C@H](C)NC(=O)[C@H](CC(C)C)NC(=O)[C@H](CCCNC(=N)N)NC(=O)[C@H](CCC(N)=O)NC(=O)[C@@H](NC(=O)[C@@H](NC(=O)[C@@H]1CSSC[C@H](NC(=O)CN)C(=O)N[C@@H](CCCNC(=N)N)C(=O)N[C@@H]([C@@H](C)O)C(=O)NCC(=O)N[C@@H]([C@@H](C)O)C(=O)N1)[C@@H](C)O)C(C)C)C(=O)N[C@@H](Cc1ccc(O)cc1)C(=O)N[C@@H](CCC(N)=O)C(=O)N[C@@H](Cc1ccccc1)C(=O)N[C@H](C(=O)N[C@@H](CC(=O)O)C(=O)N[C@@H](CCCCN)C(=O)N[C@@H](CC(=O)O)C(=O)N[C@@H](CCCCN)C(=O)N[C@@H](CC(=O)O)C(=O)N[C@@H](CC(N)=O)C(=O)N[C@H](C(=O)N[C@@H](C)C(=O)N1CCC[C@H]1C(=O)N[C@@H](CCCNC(=N)N)C(=O)N[C@H](C(=O)N[C@@H](CC(N)=O)C(=O)N[C@H](C(=O)NCC(=O)N1CCC[C@H]1C(=O)N[C@@H](CCC(N)=O)C(=O)NCC(=O)N1C[C@H](O)C[C@H]1C(N)=O)C(C)C)[C@@H](C)O)C(C)C)[C@@H](C)O [compound 49] (H-GCRTGTCTVQRLAHQIYQFTDKDKDNVAPRTNVGPQG[Hyp]-NH2; disulfide 2-7; N-terminus assumed)
[1]
  Max ThT signal (%): 3.200%
[2]
  EC50: 0.011 nM

## CC[C@H](C)[C@H](NC(=O)[C@H](CCC(N)=O)NC(=O)[C@H](Cc1c[nH]cn1)NC(=O)[C@H](C)NC(=O)[C@H](CC(C)C)NC(=O)[C@H](CCCNC(=N)N)NC(=O)[C@H](CCC(N)=O)NC(=O)[C@@H](NC(=O)[C@@H](NC(=O)[C@@H]1CSSC[C@H](NC(=O)CN)C(=O)N[C@@H](CCCNC(=N)N)C(=O)N[C@@H]([C@@H](C)O)C(=O)NCC(=O)N[C@@H]([C@@H](C)O)C(=O)N1)[C@@H](C)O)C(C)C)C(=O)N[C@@H](Cc1ccc(O)cc1)C(=O)N[C@@H](CCC(N)=O)C(=O)N[C@@H](Cc1ccccc1)C(=O)N[C@H](C(=O)N[C@@H](CC(=O)O)C(=O)N[C@@H](CCCCN)C(=O)N[C@@H](Cc1ccccc1)C(=O)N[C@@H](CCCCN)C(=O)N[C@@H](CC(=O)O)C(=O)N[C@@H](CC(N)=O)C(=O)N[C@H](C(=O)N[C@@H](C)C(=O)N1CCC[C@H]1C(=O)N[C@@H](CCCNC(=N)N)C(=O)N[C@@H](CO)C(=O)N[C@@H](CCCCN)C(=O)N[C@H](C(=O)N[C@@H](CO)C(=O)N1CCC[C@H]1C(=O)N[C@@H](CCC(N)=O)C(=O)N[C@@H](CCSC)C(=O)N1C[C@H](O)C[C@H]1C(N)=O)[C@@H](C)CC)C(C)C)[C@@H](C)O [compound 236] (H-GCRTGTCTVQRLAHQIYQFTDKFKDNVAPRSKISPQM[Hyp]-NH2; disulfide 2-7; N-terminus assumed)
[1]
  Max ThT signal (%): 0.600%

## CC[C@H](C)[C@H](NC(=O)[C@H](CCC(N)=O)NC(=O)[C@H](Cc1c[nH]cn1)NC(=O)[C@H](C)NC(=O)[C@H](CC(C)C)NC(=O)[C@H](CCCNC(=N)N)NC(=O)[C@H](CCC(N)=O)NC(=O)[C@@H](NC(=O)[C@@H](NC(=O)[C@@H]1CSSC[C@H](NC(=O)CN)C(=O)N[C@@H](CCCNC(=N)N)C(=O)N[C@@H]([C@@H](C)O)C(=O)NCC(=O)N[C@@H]([C@@H](C)O)C(=O)N1)[C@@H](C)O)C(C)C)C(=O)N[C@@H](Cc1ccc(O)cc1)C(=O)N[C@@H](CCC(N)=O)C(=O)N[C@@H](Cc1ccccc1)C(=O)N[C@H](C(=O)N[C@@H](CC(=O)O)C(=O)N[C@@H](CCCCN)C(=O)N[C@@H](Cc1ccccc1)C(=O)N[C@@H](CCCCN)C(=O)N[C@@H](CC(=O)O)C(=O)N[C@@H](CC(N)=O)C(=O)N[C@H](C(=O)N[C@@H](C)C(=O)N1CCC[C@H]1C(=O)N[C@@H](CCCNC(=N)N)C(=O)N[C@@H](CO)C(=O)N[C@@H](CCCCN)C(=O)N[C@H](C(=O)N[C@@H](CO)C(=O)N1CCC[C@H]1C(=O)N[C@@H](CCC(N)=O)C(=O)N[C@H](C(=O)N[C@@H](C)C(N)=O)[C@@H](C)O)[C@@H](C)CC)C(C)C)[C@@H](C)O [compound 241] (H-GCRTGTCTVQRLAHQIYQFTDKFKDNVAPRSKISPQTA-NH2; disulfide 2-7; N-terminus assumed)
[1]
  Max ThT signal (%): 0.900%

## CC[C@H](C)[C@H](NC(=O)[C@H](C)NC(=O)CNC(=O)[C@H](CC(=O)O)NC(=O)[C@H](CCCCN)NC(=O)[C@H](CC(=O)O)NC(=O)[C@@H](NC(=O)[C@H](Cc1ccccc1)NC(=O)[C@H](CCC(N)=O)NC(=O)[C@H](Cc1ccc(O)cc1)NC(=O)[C@H](CC(C)C)NC(=O)[C@H](Cc1ccccc1)NC(=O)[C@H](Cc1c[nH]cn1)NC(=O)[C@H](C)NC(=O)[C@H](CC(C)C)NC(=O)[C@H](CCCNC(N)=O)NC(=O)[C@H](CCC(N)=O)NC(=O)[C@@H](NC(=O)[C@@H](NC(=O)[C@@H]1CSSC[C@H](NC(=O)CN)C(=O)N[C@@H](CCCNC(=N)N)C(=O)N[C@@H](Cc2ccccc2)C(=O)NCC(=O)N[C@@H]([C@@H](C)O)C(=O)N1)[C@@H](C)O)C(C)C)[C@@H](C)O)C(=O)N[C@@H](C)C(=O)N1CCC[C@H]1C(=O)N[C@@H](CCCNC(=N)N)C(=O)N[C@H](C(=O)N[C@@H](CCCCN)C(=O)N[C@H](C(=O)NCC(=O)N[C@@H](CO)C(=O)N[C@@H](CCC(N)=O)C(=O)NCC(=O)N[C@@H](Cc1ccc(O)cc1)C(N)=O)[C@@H](C)CC)[C@@H](C)O [compound 282] (H-GCRFGTCTVQ[Cit]LAHFLYQFTDKDGAIAPRTKIGSQGY-NH2; disulfide 2-7; N-terminus assumed)
[1]
  Max ThT signal (%): 4.700%

## CC[C@H](C)[C@H](NC(=O)[C@H](CCC(N)=O)NC(=O)[C@H](Cc1c[nH]cn1)NC(=O)[C@H](C)NC(=O)[C@H](CC(C)C)NC(=O)[C@H](Cc1c[nH]c2ccccc12)NC(=O)[C@H](CCC(N)=O)NC(=O)[C@@H](NC(=O)[C@@H](NC(=O)[C@@H]1CSSC[C@H](NC(=O)CN)C(=O)N[C@@H](CCCNC(=N)N)C(=O)N[C@@H](Cc2ccccc2)C(=O)NCC(=O)N[C@@H]([C@@H](C)O)C(=O)N1)[C@@H](C)O)C(C)C)C(=O)N[C@@H](Cc1ccc(O)cc1)C(=O)N[C@@H](CCC(N)=O)C(=O)N[C@@H](Cc1ccccc1)C(=O)N[C@H](C(=O)N[C@@H](CC(=O)O)C(=O)N[C@@H](CCCCN)C(=O)N[C@@H](CC(=O)O)C(=O)N[C@@H](CCCCN)C(=O)N[C@@H](CC(=O)O)C(=O)N[C@@H](CC(N)=O)C(=O)N[C@H](C(=O)N[C@@H](C)C(=O)N1CCC[C@H]1C(=O)N[C@@H](CCCNC(=N)N)C(=O)N[C@H](C(=O)N[C@@H](CCCCN)C(=O)N[C@H](C(=O)N[C@@H](CO)C(=O)N1CCC[C@H]1C(=O)N[C@@H](CCC(N)=O)C(=O)NCC(=O)N1C[C@H](O)C[C@H]1C(N)=O)[C@@H](C)CC)[C@@H](C)O)C(C)C)[C@@H](C)O [compound 350] (H-GCRFGTCTVQWLAHQIYQFTDKDKDNVAPRTKISPQG[Hyp]-NH2; disulfide 2-7; N-terminus assumed)
[1]
  Max ThT signal (%): 15.700%
